Test results as given in PMC12257073 (Cancer Research Communications, 2025).
Entries after “also recorded” stand apart in the source; their conditions may differ.

Test: Adverse events (treatment-related and all-cause) and dose-limiting toxicities, NCI CTCAE version 4.0
Details: for Patients with treatment-related grade 3+ AEs: seven patients
[1] = Group 2, all-cause adverse events, Missing Categories
[2] = Group 2, all-cause adverse events, Skin and subcutaneous tissue disorders
[3] = Group 2, all-cause adverse events, Vascular disorders
[4] = group 1, 37 mg TP-0903 + decitabine
[5] = group 1, TP-0903 37 mg/day + decitabine, n = 15
[6] = group 2, 25 mg TP-0903 + decitabine
[7] = group 2, TP-0903 25 mg/day + decitabine, n = 12
[8] = overall, TP-0903 + decitabine, n = 27

Method: The phase 1b portion of the study used a standard 3 + 3 dose-escalation design with a starting dose level 1 (DL1) of 37 mg oral daily TP-0903 (Supplementary Table S2) based on experience with 50 mg oral daily as a single agent in patients with solid tumors ([25]). Dose-limiting toxicities (DLT) were evaluated to establish the dose brought forward for an expansion cohort (phase 2). Seven patients were enrolled in the phase 1b study, which was completed in January 2021 with the decision to move forward with an expansion cohort of 37 mg oral daily. Across the phase 1b and phase 2 studies, 15 patients were enrolled and started on 37 mg TP-0903 oral daily on days 1 to 21 (group 1). […] One additional patient was enrolled at this time but was inadvertently started on 25 mg TP-0903 oral daily on days 1 to 21. […] In May 2021, an amendment was approved to allow enrollment of a new group 2 at 25mg oral daily on days 1 to 21 of TP-0903 (DL-1) in stage 2 of the phase 2 study.
Clinical response was assessed according to the modified 2017 European LeukemiaNet AML criteria ([26]). The primary endpoint was achievement of CR within six cycles of therapy. Secondary endpoints included toxicity, duration of response, OS, and the proportion of eligible patients who effectively transitioned to allogeneic stem cell transplantation. Exploratory endpoints included pharmacokinetics (PK), correlative genetic, and biochemical data; correlations between morphologic remission, spectral flow cytometry, and mutational remission; and duration of remission or survival. […] Adverse events (AE) were graded according to the NCI Common Terminology Criteria for Adverse Events version 4.0 ([27]).

## CN1CCN(Cc2ccc(Nc3ncc(Cl)c(Nc4ccccc4S(=O)(=O)N(C)C)n3)cc2)CC1.O=C(O)C(O)C(O)C(=O)O.O=C(O)C(O)C(O)C(=O)O [TP-0903, 2-(5-chloro-2-(4-((4-methylpiperazin-1-yl)methyl)phenylamino)pyrimidin-4-yl)amino-N,N-dimethylbenzene-1-sulfonamide di-tartrate salt]
[1]
  Hypotension (intermittent), All: 1 (8.3)
  Hypotension (intermittent), Grade 1 2: 1 (8.3)
  Hypotension (intermittent), Grade 3+: 0 (0)
  INR - Increased, All: 0 (0)
  INR - Increased, Grade 1 2: 0 (0)
  INR - Increased, Grade 3+: 0 (0)
  Inflammation (bilateral knee), All: 1 (8.3)
  Inflammation (bilateral knee), Grade 1 2: 1 (8.3)
  Inflammation (bilateral knee), Grade 3+: 0 (0)
  Itching (intermittent), All: 1 (8.3)
  Itching (intermittent), Grade 1 2: 1 (8.3)
  Itching (intermittent), Grade 3+: 0 (0)
  Microvascular ischemic disease, All: 1 (8.3)
  Microvascular ischemic disease, Grade 1 2: 1 (8.3)
  Microvascular ischemic disease, Grade 3+: 0 (0)
  Pain (leg), All: 1 (8.3)
  Pain (leg), Grade 1 2: 1 (8.3)
  Pain (leg), Grade 3+: 0 (0)
  Retinal Detachment, All: 0 (0)
  Retinal Detachment, Grade 1 2: 0 (0)
  Retinal Detachment, Grade 3+: 0 (0)
  Steroid-induced hyperglycemia, All: 1 (8.3)
  Steroid-induced hyperglycemia, Grade 1 2: 1 (8.3)
  Steroid-induced hyperglycemia, Grade 3+: 0 (0)
  Symptomatic anemia, All: 1 (8.3)
  Symptomatic anemia, Grade 1 2: 0 (0)
  Symptomatic anemia, Grade 3+: 1 (8.3)
  lung fullness, All: 0 (0)
  lung fullness, Grade 1 2: 0 (0)
  lung fullness, Grade 3+: 0 (0)
  neuropathy (BLE), All: 1 (8.3)
  neuropathy (BLE), Grade 1 2: 1 (8.3)
  neuropathy (BLE), Grade 3+: 0 (0)
  pericarditis (intermittent), All: 1 (8.3)
  pericarditis (intermittent), Grade 1 2: 1 (8.3)
  pericarditis (intermittent), Grade 3+: 0 (0)
[2]
  Dry skin, All: 0 (0)
  Dry skin, Grade 1 2: 0 (0)
  Dry skin, Grade 3+: 0 (0)
  Ecchymosis, All: 4 (33.3)
  Ecchymosis, Grade 1 2: 4 (33.3)
  Ecchymosis, Grade 3+: 0 (0)
  Erythema nodosum, All: 1 (8.3)
  Erythema nodosum, Grade 1 2: 1 (8.3)
  Erythema nodosum, Grade 3+: 0 (0)
  Erythema, All: 0 (0)
  Erythema, Grade 1 2: 0 (0)
  Erythema, Grade 3+: 0 (0)
  Hyperhidrosis, All: 1 (8.3)
  Hyperhidrosis, Grade 1 2: 1 (8.3)
  Hyperhidrosis, Grade 3+: 0 (0)
  Nail discolouration, All: 0 (0)
  Nail discolouration, Grade 1 2: 0 (0)
  Nail discolouration, Grade 3+: 0 (0)
  Petechiae, All: 3 (25)
  Petechiae, Grade 1 2: 3 (25)
  Petechiae, Grade 3+: 0 (0)
  Photosensitivity reaction, All: 0 (0)
  Photosensitivity reaction, Grade 1 2: 0 (0)
  Photosensitivity reaction, Grade 3+: 0 (0)
  Pruritus, All: 0 (0)
  Pruritus, Grade 1 2: 0 (0)
  Pruritus, Grade 3+: 0 (0)
  Rash papular, All: 1 (8.3)
  Rash papular, Grade 1 2: 1 (8.3)
  Rash papular, Grade 3+: 0 (0)
  Rash, All: 1 (8.3)
  Rash, Grade 1 2: 1 (8.3)
  Rash, Grade 3+: 0 (0)
  Scab, All: 1 (8.3)
  Scab, Grade 1 2: 1 (8.3)
  Scab, Grade 3+: 0 (0)
  Skin disorder, All: 0 (0)
  Skin disorder, Grade 1 2: 0 (0)
  Skin disorder, Grade 3+: 0 (0)
  Skin lesion, All: 1 (8.3)
  Skin lesion, Grade 1 2: 1 (8.3)
  Skin lesion, Grade 3+: 0 (0)
  Swelling face, All: 1 (8.3)
  Swelling face, Grade 1 2: 1 (8.3)
  Swelling face, Grade 3+: 0 (0)
[3]
  Hypertension, All: 1 (8.3)
  Hypertension, Grade 1 2: 0 (0)
  Hypertension, Grade 3+: 1 (8.3)
  Hypotension, All: 1 (8.3)
  Hypotension, Grade 1 2: 0 (0)
  Hypotension, Grade 3+: 1 (8.3)
  Lymphoedema, All: 1 (8.3)
  Lymphoedema, Grade 1 2: 1 (8.3)
  Lymphoedema, Grade 3+: 0 (0)
  Peripheral venous disease, All: 1 (8.3)
  Peripheral venous disease, Grade 1 2: 1 (8.3)
  Peripheral venous disease, Grade 3+: 0 (0)
All treated patients, TP-0903 + decitabine
  Serious AEs related to TP-0903: no patients had serious AEs related to TP-0903; also recorded: no serious AEs attributable to TP-0903
[4]
  Diarrhea, grade 1 to 2 treatment-related AE (any grade): 33%
  Fatigue, grade 3+ treatment-related AE: 6%
  Nausea, grade 1 to 2 treatment-related AE (any grade): 47%
  Neutropenia, grade 3+ treatment-related AE: 33%
  Stomatitis, grade 3+ treatment-related AE: 6%
  Thrombocytopenia, grade 3+ treatment-related AE: 27%
  Patients with treatment-related grade 3+ AEs: 47%
[5]
  Anemia, treatment-related AE grade ≥3: 2 (13.3) no. (%)
  Decreased appetite, treatment-related AE grade ≥3: 0 (0) no. (%)
  Febrile neutropenia, treatment-related AE grade ≥3: 0 (0) no. (%)
  Leukopenia, treatment-related AE grade ≥3: 3 (20) no. (%)
  Lymphocyte count decreased, treatment-related AE grade ≥3: 0 (0) no. (%)
  Neutropenia, treatment-related AE grade ≥3: 5 (33.3) no. (%)
  Pneumonia, treatment-related AE grade ≥3: 0 (0) no. (%)
  Thrombocytopenia, treatment-related AE grade ≥3: 4 (26.7) no. (%)
[6]
  Decreased appetite, grade 1 to 2 treatment-related AE (any grade): 25%
  Decreased appetite, grade 3+ treatment-related AE: 8%
  Diarrhea, grade 1 to 2 treatment-related AE (any grade): 25%
  Febrile neutropenia, grade 3+ treatment-related AE: 33%
  Leukopenia, grade 3+ treatment-related AE: 33%
  Lymphocyte count decrease, grade 3+ treatment-related AE: 42%
  Nausea, grade 1 to 2 treatment-related AE (any grade): 42%
  Neutropenia, grade 3+ treatment-related AE: 50%
  Pneumonia, grade 3+ treatment-related AE: 8%
  Thrombocytopenia, grade 3+ treatment-related AE: 25%
  Patients with treatment-related grade 3+ AEs: 58%
[7]
  Anemia, treatment-related AE grade ≥3: 1 (8.3) no. (%)
  Decreased appetite, treatment-related AE grade ≥3: 1 (8.3) no. (%)
  Fatigue, treatment-related AE grade ≥3: 0 (0) no. (%)
  Febrile neutropenia, treatment-related AE grade ≥3: 4 (33.3) no. (%)
  Leukopenia, treatment-related AE grade ≥3: 4 (33.3) no. (%)
  Lymphocyte count decreased, treatment-related AE grade ≥3: 5 (41.7) no. (%)
  Neutropenia, treatment-related AE grade ≥3: 6 (50) no. (%)
  Pneumonia, treatment-related AE grade ≥3: 1 (8.3) no. (%)
  Stomatitis, treatment-related AE grade ≥3: 0 (0) no. (%)
  Thrombocytopenia, treatment-related AE grade ≥3: 3 (25) no. (%)
[8]
  Anemia, treatment-related AE grade ≥3: 3 (11.1) no. (%)
  Decreased appetite, treatment-related AE grade ≥3: 1 (3.7) no. (%)
  Fatigue, treatment-related AE grade ≥3: 1 (3.7) no. (%)
  Febrile neutropenia, treatment-related AE grade ≥3: 4 (14.8) no. (%)
  Leukopenia, treatment-related AE grade ≥3: 7 (25.9) no. (%)
  Lymphocyte count decreased, treatment-related AE grade ≥3: 5 (18.5) no. (%)
  Neutropenia, treatment-related AE grade ≥3: 11 (40.7) no. (%)
  Pneumonia, treatment-related AE grade ≥3: 1 (3.7) no. (%)
  Stomatitis, treatment-related AE grade ≥3: 1 (3.7) no. (%)
  Thrombocytopenia, treatment-related AE grade ≥3: 7 (25.9) no. (%)
Phase 1b, DL1 37 mg TP-0903 + decitabine, six evaluable patients
  Dose-limiting toxicities (DLT): No DLTs were observed
